One assay is filed under the species Oryctolagus cuniculus. As to the kind of experiment: Compound was evaluated for vasorelaxant activity determined using potassium-depolarized rabbit thoracic aorta. It is filed as functional.
The test system of the next assay is Rattus norvegicus. Nature of the assay: In vivo antihypertensive activity of compound was determined at 45 umol/kg administered orally in spontaneously hypertensive rats; % reduction in blood pressure. It is filed as functional.

Structures are written as SMILES.

By IC50 is commonly meant the concentration that inhibits the measured activity by half.

The compound `CC1=Nc2cc(=O)n(S(=O)(=O)c3ccccc3)n2C(c2cccc([N+](=O)[O-])c2)/C1=C(/O)OC(C)C` (configuration not stated) displayed an IC50 in the assay listed under Oryctolagus cuniculus of 10 nM.
Compound `COC(=O)C1=C(C)NC(C)=C(C(=O)OC)C1c1ccccc1[N+](=O)[O-]` [NIFEDIPINE] yielded a Reduction in the assay with Rattus norvegicus of 33%. This compound also showed an IC50 in the assay filed under Oryctolagus cuniculus of 2.5 nM.
Turning to `CC1=Nc2cc(=O)[nH]n2C(c2cccc([N+](=O)[O-])c2)/C1=C(/O)OC(C)C` (configuration not stated), the IC50 in the assay listed under Oryctolagus cuniculus turned out to be 318 nM.
With `CCO/C(O)=C1/C(C)=Nc2nc(SC)nn2C1c1cccc(Cl)c1Cl` (configuration not stated), the IC50 in the assay filed under Oryctolagus cuniculus stood at 620 nM.
On to `CCO/C(O)=C1/C(C)=Nc2nccn2C1c1cccc(Cl)c1Cl` (configuration not stated), for which the midpoint of inhibition in the assay listed under Oryctolagus cuniculus, the IC50, lay at 96 nM.
On the same count and under the same terms, with `CCO/C(O)=C1/C(C)=Nc2ccnn2C1c1cccc(Cl)c1Cl` (configuration not stated) the figure was 21 nM.
Turning to `CCOC(=O)N1C(=S)N=C(C)/C(=C(/O)OCC)C1c1cccc([N+](=O)[O-])c1` (configuration not stated), the IC50 in the assay listed under Oryctolagus cuniculus was found to be 3 nM.
The same measure, in the same setting: with `CC1=Nc2c(C(N)=O)cnn2C(c2cccc([N+](=O)[O-])c2)/C1=C(/O)OC(C)C` (configuration not stated) the figure was more than 1000 nM.
On the same count and under the same terms, with `CCCNC(=O)n1c(=O)cc2n1C(c1cccc([N+](=O)[O-])c1)/C(=C(/O)OC(C)C)C(C)=N2` (configuration not stated) the figure was 23 nM; with `CC1=Nc2cc(=O)n(C(=O)c3ccccc3)n2C(c2cccc([N+](=O)[O-])c2)/C1=C(/O)OC(C)C` (configuration not stated), 54 nM; with `CC1=Nc2c(C#N)cnn2C(c2cccc([N+](=O)[O-])c2)/C1=C(/O)OC(C)C` (configuration not stated), 7 nM.
Same read-out and setting: with `COC(=O)c1cnn2c1N=C(C)/C(=C(\O)OC(C)C)C2c1cccc([N+](=O)[O-])c1` (configuration not stated) the figure was 1160 nM.
As for `CCOC(=O)C1=C(C)N=C2NCCCN2C1c1cccc(Cl)c1Cl` (configuration not stated), the midpoint of inhibition in the assay filed under Oryctolagus cuniculus, the IC50, lay at 2890 nM.
On the same count and under the same terms, with `CC1=Nc2cc(=O)n(Cc3ccccc3)n2C(c2cccc([N+](=O)[O-])c2)/C1=C(/O)OC(C)C` (configuration not stated) the figure was 5 nM.
In the assay on Rattus norvegicus, `CCO/C(O)=C1/C(C)=Nc2c(C#N)cnn2C1c1cccc(Cl)c1Cl` (configuration not stated) returned a Reduction of 20%. The same compound had an IC50 in the assay filed under Oryctolagus cuniculus of 1.5 nM.

Source of the values: ChEMBL document CHEMBL1151533, “Dihydropyrimidine calcium channel blockers 51: bicyclic dihydropyrimidines as potent mimics of dihydropyridines” (Bioorg Med Chem Lett, 1991).
